Measured values reported in US4464385A, “Treatment of diabetic complications with hydantoins” (Alcon Laboratories, Inc., priority 1982, dated 1984).

Test system: cataracts in rats
Assay: Prevention or retardation of cataracts in galactose-fed rats
Assay type: in vivo, rat
Conditions: 30% galactose diet, A,C,E 0.0025%, B,D 0.01%
Procedure: The compounds to be tested were:
Test compound/diet mixtures were formulated as follows: […]
Similarly, the 0.01% level was designed to provide a drug concentration of 20 mg per kilogram per day.
All animals were fed the Purina Laboratory Chow and water, ad libitum for a two day acclimatization period. The indicated test compound/diet mixture then was introduced to all animals on Study Day 1 and the animals were maintained on this diet throughout thirty days of the study.
Sufficient amounts of test compound/diet mixture were maintained in the food hoppers to allow the animals to eat ad libitum. All aliquots of test compound/diet mixture added to the food hoopers were weighed and the weights, as well as day of addition, recorded.
Twelve animals were assigned to each treatment with each compound at the indicated percentage by total weight of feed. All eyes were examined with a handheld ophthalmoscope and/or penlight.

CSc1ccc2c(c1)C1(CCO2)NC(=O)NC1=O (stereo not drawn) [B]
20 eyes: Number of Eyes Observed, + (vacuole) (Study Day 16)
1 eyes: Number of Eyes Observed, ± (Study Day 18) | Number of Eyes Observed, S (snowflake) (Study Day 20) | Number of Eyes Observed, ± (Study Day 20) | Number of Eyes Observed, + (vacuole) (Study Day 30)
6 eyes: Number of Eyes Observed, + (vacuole) (Study Day 10)
22 eyes: Number of Eyes Observed, - (Normal) (Study Day 5) | Number of Eyes Observed, + (vacuole) (Study Day 20) | Number of Eyes Observed, S (snowflake) (Study Day 28)
9 eyes: Number of Eyes Observed, ± (Study Day 6) | Number of Eyes Observed, - (Normal) (Study Day 10) | Number of Eyes Observed, ± (Study Day 10)
37.5%: % of Total Eyes, - (Normal) (Study Day 10)
4 eyes: Number of Eyes Observed, ± (Study Day 16)
95.8%: % of Total Eyes, + (vacuole) (Study Day 18) | % of Total Eyes, S (snowflake) (Study Day 30)
0%: % of Total Eyes, + (vacuole) (Study Day 2) | % of Total Eyes, N (nuclear cataract) (Study Day 2) | % of Total Eyes, S (snowflake) (Study Day 2) | % of Total Eyes, + (vacuole) (Study Day 3) | % of Total Eyes, N (nuclear cataract) (Study Day 3) | % of Total Eyes, S (snowflake) (Study Day 3) | % of Total Eyes, + (vacuole) (Study Day 4) | % of Total Eyes, N (nuclear cataract) (Study Day 4) | % of Total Eyes, S (snowflake) (Study Day 4) | % of Total Eyes, + (vacuole) (Study Day 5) | % of Total Eyes, N (nuclear cataract) (Study Day 5) | % of Total Eyes, S (snowflake) (Study Day 5) | % of Total Eyes, + (vacuole) (Study Day 6) | % of Total Eyes, N (nuclear cataract) (Study Day 6) | % of Total Eyes, S (snowflake) (Study Day 6) | % of Total Eyes, N (nuclear cataract) (Study Day 8) | % of Total Eyes, S (snowflake) (Study Day 8) | % of Total Eyes, N (nuclear cataract) (Study Day 10) | % of Total Eyes, S (snowflake) (Study Day 10) | % of Total Eyes, N (nuclear cataract) (Study Day 12) | % of Total Eyes, S (snowflake) (Study Day 12) | % of Total Eyes, N (nuclear cataract) (Study Day 14) | % of Total Eyes, S (snowflake) (Study Day 14) | % of Total Eyes, - (Normal) (Study Day 16) | % of Total Eyes, N (nuclear cataract) (Study Day 16) | % of Total Eyes, S (snowflake) (Study Day 16) | % of Total Eyes, - (Normal) (Study Day 18) | % of Total Eyes, N (nuclear cataract) (Study Day 18) | % of Total Eyes, S (snowflake) (Study Day 18) | % of Total Eyes, - (Normal) (Study Day 20) | % of Total Eyes, N (nuclear cataract) (Study Day 20) | % of Total Eyes, - (Normal) (Study Day 22) | % of Total Eyes, N (nuclear cataract) (Study Day 22) | % of Total Eyes, - (Normal) (Study Day 24) | % of Total Eyes, N (nuclear cataract) (Study Day 24) | % of Total Eyes, - (Normal) (Study Day 26) | % of Total Eyes, N (nuclear cataract) (Study Day 26) | % of Total Eyes, - (Normal) (Study Day 28) | % of Total Eyes, N (nuclear cataract) (Study Day 28) | % of Total Eyes, - (Normal) (Study Day 30) | % of Total Eyes, N (nuclear cataract) (Study Day 30)
10 eyes: Number of Eyes Observed, - (Normal) (Study Day 8) | Number of Eyes Observed, + (vacuole) (Study Day 12)
11 eyes: Number of Eyes Observed, + (vacuole) (Study Day 24)
54.2%: % of Total Eyes, S (snowflake) (Study Day 24)
41.6%: % of Total Eyes, - (Normal) (Study Day 8) | % of Total Eyes, + (vacuole) (Study Day 12)
2 eyes: Number of Eyes Observed, ± (Study Day 5) | Number of Eyes Observed, + (vacuole) (Study Day 8) | Number of Eyes Observed, + (vacuole) (Study Day 28)
29.2%: % of Total Eyes, - (Normal) (Study Day 12) | % of Total Eyes, S (snowflake) (Study Day 22)
15 eyes: Number of Eyes Observed, - (Normal) (Study Day 6)
0 eyes: Number of Eyes Observed, + (vacuole) (Study Day 2) | Number of Eyes Observed, N (nuclear cataract) (Study Day 2) | Number of Eyes Observed, S (snowflake) (Study Day 2) | Number of Eyes Observed, ± (Study Day 2) | Number of Eyes Observed, + (vacuole) (Study Day 3) | Number of Eyes Observed, N (nuclear cataract) (Study Day 3) | Number of Eyes Observed, S (snowflake) (Study Day 3) | Number of Eyes Observed, ± (Study Day 3) | Number of Eyes Observed, + (vacuole) (Study Day 4) | Number of Eyes Observed, N (nuclear cataract) (Study Day 4) | Number of Eyes Observed, S (snowflake) (Study Day 4) | Number of Eyes Observed, ± (Study Day 4) | Number of Eyes Observed, + (vacuole) (Study Day 5) | Number of Eyes Observed, N (nuclear cataract) (Study Day 5) | Number of Eyes Observed, S (snowflake) (Study Day 5) | Number of Eyes Observed, + (vacuole) (Study Day 6) | Number of Eyes Observed, N (nuclear cataract) (Study Day 6) | Number of Eyes Observed, S (snowflake) (Study Day 6) | Number of Eyes Observed, N (nuclear cataract) (Study Day 8) | Number of Eyes Observed, S (snowflake) (Study Day 8) | Number of Eyes Observed, N (nuclear cataract) (Study Day 10) | Number of Eyes Observed, S (snowflake) (Study Day 10) | Number of Eyes Observed, N (nuclear cataract) (Study Day 12) | Number of Eyes Observed, S (snowflake) (Study Day 12) | Number of Eyes Observed, N (nuclear cataract) (Study Day 14) | Number of Eyes Observed, S (snowflake) (Study Day 14) | Number of Eyes Observed, - (Normal) (Study Day 16) | Number of Eyes Observed, N (nuclear cataract) (Study Day 16) | Number of Eyes Observed, S (snowflake) (Study Day 16) | Number of Eyes Observed, - (Normal) (Study Day 18) | Number of Eyes Observed, N (nuclear cataract) (Study Day 18) | Number of Eyes Observed, S (snowflake) (Study Day 18) | Number of Eyes Observed, - (Normal) (Study Day 20) | Number of Eyes Observed, N (nuclear cataract) (Study Day 20) | Number of Eyes Observed, - (Normal) (Study Day 22) | Number of Eyes Observed, N (nuclear cataract) (Study Day 22) | Number of Eyes Observed, ± (Study Day 22) | Number of Eyes Observed, - (Normal) (Study Day 24) | Number of Eyes Observed, N (nuclear cataract) (Study Day 24) | Number of Eyes Observed, ± (Study Day 24) | Number of Eyes Observed, - (Normal) (Study Day 26) | Number of Eyes Observed, N (nuclear cataract) (Study Day 26) | Number of Eyes Observed, ± (Study Day 26) | Number of Eyes Observed, - (Normal) (Study Day 28) | Number of Eyes Observed, N (nuclear cataract) (Study Day 28) | Number of Eyes Observed, ± (Study Day 28) | Number of Eyes Observed, - (Normal) (Study Day 30) | Number of Eyes Observed, N (nuclear cataract) (Study Day 30) | Number of Eyes Observed, ± (Study Day 30)
70.8%: % of Total Eyes, + (vacuole) (Study Day 22)
19 eyes: Number of Eyes Observed, S (snowflake) (Study Day 26)
13 eyes: Number of Eyes Observed, S (snowflake) (Study Day 24)
62.5%: % of Total Eyes, - (Normal) (Study Day 6)
83.3%: % of Total Eyes, + (vacuole) (Study Day 16)
23 eyes: Number of Eyes Observed, + (vacuole) (Study Day 18) | Number of Eyes Observed, S (snowflake) (Study Day 30)
100.0%: % of Total Eyes, - (Normal) (Study Day 2) | % of Total Eyes, - (Normal) (Study Day 3) | % of Total Eyes, - (Normal) (Study Day 4)
45.8%: % of Total Eyes, + (vacuole) (Study Day 24)
5 eyes: Number of Eyes Observed, + (vacuole) (Study Day 26)
4.2%: % of Total Eyes, S (snowflake) (Study Day 20) | % of Total Eyes, + (vacuole) (Study Day 30)
3 eyes: Number of Eyes Observed, - (Normal) (Study Day 14) | Number of Eyes Observed, ± (Study Day 14)
91.7%: % of Total Eyes, - (Normal) (Study Day 5) | % of Total Eyes, + (vacuole) (Study Day 20) | % of Total Eyes, S (snowflake) (Study Day 28)
12.5%: % of Total Eyes, - (Normal) (Study Day 14)
8.3%: % of Total Eyes, + (vacuole) (Study Day 8) | % of Total Eyes, + (vacuole) (Study Day 28)
17 eyes: Number of Eyes Observed, + (vacuole) (Study Day 22)
25.0%: % of Total Eyes, + (vacuole) (Study Day 10)
24 eyes: Number of Eyes Observed, - (Normal) (Study Day 2) | Number of Eyes Observed, - (Normal) (Study Day 3) | Number of Eyes Observed, - (Normal) (Study Day 4)
12 eyes: Number of Eyes Observed, ± (Study Day 8)
18 eyes: Number of Eyes Observed, + (vacuole) (Study Day 14)
7 eyes: Number of Eyes Observed, - (Normal) (Study Day 12) | Number of Eyes Observed, ± (Study Day 12) | Number of Eyes Observed, S (snowflake) (Study Day 22)
20.8%: % of Total Eyes, + (vacuole) (Study Day 26)
78.0%: % of Total Eyes, + (vacuole) (Study Day 14)
79.2%: % of Total Eyes, S (snowflake) (Study Day 26)
